Measurements as given in patent EP0437336B1, “Biophosphoryl hydrazines and their use as pesticides” (priority 1990, dated 1991).
In brackets after ≈: the same amount, converted by molar mass. Read-outs that look alike come from different tables or passages of the source.

What was measured:
Two-Spotted Spider Mite = experiment: Biological Method D: Foliar Insecticidal Activity Test, mite test; format: in vivo, Tetranychus urticae; set-up: key to LC50 TSM: I = inactive at concentration listed; conditions: Method D foliar test, Two-Spotted Spider Mite; for LC50: Tetranychus urticae, read-out: LC50 TSM
Experimental: (§1) Biological Method D: Foliar Insecticidal Activity Test
(§2) In evaluating the foliar insecticidal activity of the compounds of this invention against insects and mites, the following test procedures were employed.
(§3) Not all compounds were tested at each of the several concentrations stated above. Test concentrations of a compound were selected as those most likely to differentiate dose response of a particular compound toward a particular test insect.
(§4) Initial evaluations were made on one or more of the following pests:
For the mite test, infested bean (Phaseolus limensis var. Woods Prolific) leaf discs [3.18 cm (1.25") in diameter] containing about 50 mites were placed in a Petri dish lid on a moistened piece of cotton. The leaves were then sprayed to thorough wetness with the test solution using a rotating turntable, held for twenty-four hours and then the percentage killed was determined.
(§5) The mortalities obtained in this manner were plotted on logarithmic probability paper.
(§6) The rotating turntable consists of a fixed, continuously operating spray nozzle under which targets are rotated at a fixed speed and distance. If the target is a Petri dish (such as for the bean beetle, armyworm, mite, or aphid tests), the distance from the nozzle is 38.1 cm (15 inches). If the target is a Mason jar (such as for the boll weevil test), the distance from the nozzle is 17.8 cm (7 inches). The nozzle is located 8 inches from the rotating shaft. The targets on individual platforms revolve around the shaft at 1 revolution per 20 seconds but only a brief portion of this time occurs in the spray path. Targets pass only once under the nozzle and then are removed to drying hoods.
(§7) The nozzle used is a 1/4 JCO Spraying Systems (Wheaton, Illinois) air atomizing nozzle equipped with a No. 2850 fluid cap and a No. 70 air cap. At the 68.95 x 10³ Pa gauge (10 psig) air pressure used and with liquid siphon feed, 1.89 ℓ/hr [0.5 GPH (gallons per hour)] are delivered in a round spray pattern with a 21 degree spray angle. Targets are misted with spray droplets to the point that the droplets coalesce to form a uniform thin film insufficient to drown test organisms.

Mexican Bean Beetle = experiment: Biological Method D: Foliar Insecticidal Activity Test, Mexican Bean Beetle test; format: in vivo, Epilachna varivestis; set-up: key to LC50 BB 96 hrs / LC50 BB 48 hrs.: I = inactive at concentration listed; conditions: Mexican Bean Beetle; for LC50: Epilachna varivestis
Experimental: as §1, §2, §3, §4
(§8) For the Mexican Bean Beetle and Southern armyworm tests, individual lima bean (Phaseolus limeniss var. Woods' Prolific) leaves were placed on moistened pieces of filter paper in Petri dishes. The leaves were then sprayed with the test solution using a rotating turntable and allowed to dry. The dishes were then infested with 10 third instar larvae of either the Mexican Been Beetle or the Southern Armyworm. The dishes were then covered. Percent mortality was determined for each species and spray concentration at 48 and 96 hours after treatment.
as §5, §6, §7

Boll Weevil [1] = experiment: Biological Method D: Foliar Insecticidal Activity Test, boll weevil test; format: in vivo, Anthonomous grandis; conditions: Method D foliar test, Boll Weevil
Experimental: as §1, §2, §3, §4
(§9) For the boll weevil test, 10 adult weevils were placed in a 0.24 ℓ (0.5 pint) glass Mason jar containing a small cube of apple. The weevils were confined to the jar by fiberglass screen mesh secured by a screw-type rim cap. The jars were then sprayed with the test solution using a rotating turntable; directing the spray through the mesh into the jar. The percentage killed was determined after forty-eight and ninety six hours.
as §5, §6, §7

Green Peach Aphid = experiment: Biological Method D: Foliar Insecticidal Activity Test, aphid test; format: in vivo, Myzus persicae; set-up: key: I = inactive at concentration listed
Experimental: as §1, §2, §3, §4
For the aphid test, infested broccoli (Brassica oleracea italica var. DiCicco) leaves containing about 50 aphids were placed in a Petri dish lid on a moistened piece of cotton. The leaves were then sprayed to thorough wetness with the test solution using a rotating turntable, held for twenty-four hours and then the percentage killed was determined.
as §5, §6, §7

Southern Armyworm = experiment: Biological Method D: Foliar Insecticidal Activity Test, Southern Armyworm test; format: in vivo, Spodoptera eridania; set-up: key: I = inactive at concentration listed
Experimental: as §1, §2, §3, §4, §8, §5, §6, §7

[2] = test system: southern corn rootworm, Diabrotica undecimpunctata howardi; experiment: Biological Method A: Corn Rootworm Screening Test (treated non-aggressive soil); conditions: soil concentration giving 90% mortality, 10 days at 27°C
Boll Weevil [3] = experiment: Biological Method D: Foliar Insecticidal Activity Test, boll weevil test; format: in vivo, Anthonomous grandis; set-up: key: I = inactive at concentration listed
Experimental: as §1, §2, §3, §4, §9, §5, §6, §7

[4] = test system: southern corn rootworm, Diabrotica undecimpunctata howardi; conditions: at-planting soil application
[5] = Method D foliar test, 96 hrs, read-out: LC50 BB 96 hrs
[6] = Method D foliar test, 48 hrs, read-out: LC50 BB 48 hrs.

Structure (SMILES)	LC50 TSM (Two-Spotted Spider Mite)	LC50 (Mexican Bean Beetle; [5]) [µg/mL]	LC50 BB 48 hrs. (Mexican Bean Beetle; Method D foliar test, 48 hrs)	LC50 BW 48 hrs (Boll Weevil [1]) [ppm]	LC50 BW 96 hrs (Boll Weevil [1]) [ppm]	LC50 GPA (Green Peach Aphid)	LC50 AW 48 hrs (Southern Armyworm)	LC50 AW 96 hrs (Southern Armyworm)	primary nonagressive Method A crw LC90 [2]	LC50 BB 96 hrs (Mexican Bean Beetle; Method D foliar test, 96 hrs)	LC50 (Mexican Bean Beetle; [6]) [µg/mL]	LC50 BW 48 hrs (Boll Weevil [3])	LC50 BW 96 hrs (Boll Weevil [3])	secondary aggressive Method C crw LC50 ([4]; rated 17 days post-infestation) [kg/ha]	secondary aggressive Method C crw LC50 ([4]; value in brackets) [lb/acre]	LC50 (Two-Spotted Spider Mite) [µg/mL]	LC50 (Mexican Bean Beetle; foliar, 48 hrs, compounds a-r, read-out: LC 50 BB 48 hrs.) [µg/mL]	LC50 (Mexican Bean Beetle; foliar, 96 hrs, compounds a-r, read-out: LC 50 BB 96 hrs.) [µg/mL]
CCOP(=O)(NNP(=S)(OCC)OC(C)C)SC(C)CC (stereo not shown) [Compound 55]	I	17 (≈ 44.9 µM)	I	740	70	I	I	I	1.1 ppm									
CCOP(=O)(NNP(=S)(OCC)OCC)SC(C)CC (stereo not shown) [Compound 53]	I		I	740	740	I	I	I	1.6 ppm	I								
CCCOP(=S)(NNP(=O)(OCC)SCC)OCCC (stereo not shown) [Compound 22]	I	115 (≈ 316 µM)				I	I	I	I		150 (≈ 412 µM)	I	I					
CCOP(=O)(NNP(=S)(OCC)OCC)SCC (stereo not shown) [Compound 21]	I					I	I	I	4.7 ppm			I	I					
CCOP(=S)(NNP(=S)(OCC(C)(C)C)OCC(C)(C)C)OCC(C)(C)C (stereo not shown) [Compound 57, N-(O,O-dineopentylthiophosphoryl) N′-(O-ethyl O-neopentylthiophosphoryl) hydrazine]	I		I			I	I	I	1.1 ppm	I		I	I	0.5	0.45			
CCCOP(=S)(NNP(=S)(OCCC)OCCC)OCC (stereo not shown) [Compound 28]	I	50 (≈ 132 µM)				I	I	I	1.1 ppm		62 (≈ 164 µM)	I	I	1.06	0.95			
CCCOP(=S)(NNP(=S)(OCC)SCC)OCCC (stereo not shown) [Compound 27]	I	150 (≈ 394 µM)			740	I	I	I	5.8 ppm		150 (≈ 394 µM)	I						
CCCOP(=S)(NNP(=S)(OC)OC)OCCC [Compound 37, reference compound]		62 (≈ 184 µM)				I	I	I	1.7 ppm		150 (≈ 446 µM)	I	I			450 (≈ 1340 µM)		
CCCNP(=S)(NNP(=S)(OCCC)OCCC)OCC (stereo not shown) [Compound 25]	I	13 (≈ 34.4 µM)				I	I	I	2.5 ppm		38 (≈ 101 µM)	I	I					
CCOP(=O)(NNP(=S)(OCC)OC(C)CC)SC(C)CC (stereo not shown) [Compound 56]	I	31 (≈ 79 µM)				I	I	I	1.1 ppm		380 (≈ 968 µM)	I	I					
CCOP(=S)(NNP1(=S)N(C)CCN1C)OCC [Compound 3]	I					I	I	I	4.5 ppm			I	I					
COP(=S)(NNP(=S)(OC)OC)OC [Compound 42, reference compound]						I	I	I	I	I	600 (≈ 2140 µM)	I	I			150 (≈ 535 µM)		
CCOP(=S)(NNP(=S)(OCC(C)(C)C)OCC(C)(C)C)OCC [Compound 59, reference compound]	I		I	740	740	I	I	I	I	I								
CCOP(=S)(NNP1(=S)OCC(C)(C)CO1)OCC [Compound 61]	I		I	740	740	I	I		1.1 ppm	I								
CCOP(=S)(NN(C)P(=S)(OCC)OCC)OC(C)C (stereo not shown) [p]																	270 (≈ 741 µM)	78 (≈ 214 µM)
CCOP(=S)(NNP(=S)(OCC)SCC)OCC (stereo not shown) [Compound 26]		150 (≈ 426 µM)				I	I	I	1.1 ppm		150 (≈ 426 µM)	I	I			640 (≈ 1820 µM)		
CCOP(=S)(NNP(=S)(OCC)OC(C)(C)C(F)(F)F)OCC (stereo not shown) [Compound 40]		45 (≈ 108 µM)				I	I	I	1.0 ppm		38 (≈ 90.8 µM)	I	I			150 (≈ 359 µM)		
CCOP(=S)(NNP(=S)(OCC)N1CCCCC1)OCC (stereo not shown) [Compound 62]	I		I			I	I	I	1.1 ppm	I		I	I					
CCOP(=S)(NNP(=S)(OC)OC)OCC [Compound 36, reference compound]		600 (≈ 1950 µM)	I			I	I	I	0.90 ppm			I	I			79 (≈ 256 µM)		
CCOP(=S)(NNP(=S)(OCC)N1CCCC1)OCC (stereo not shown) [Compound 60]	I		I			I	I	I	1.1 ppm	I		I	I					
